30 compounds from US20090118276A1, “THIENOPYRIMIDINES, THIENOPYRIDINES, AND PYRROLOPYRIMIDINES AS B-RAF INHIBITORS” (priority 2007, published 2009) can be followed below.

Molecules are shown by their SMILES.

What is called IC50 is the concentration at which inhibition is half-maximal.

In the first assay the target is T1, Flag/GST-tagged recombinant human B-Raf (Homo sapiens, UniProt P15056).
T1 construct: Flag; GST; made in house; host or cells: Sf9 insect cells (B-Raf); E. coli (MEK1-GST)
T1 sequence (P15056 whole entry): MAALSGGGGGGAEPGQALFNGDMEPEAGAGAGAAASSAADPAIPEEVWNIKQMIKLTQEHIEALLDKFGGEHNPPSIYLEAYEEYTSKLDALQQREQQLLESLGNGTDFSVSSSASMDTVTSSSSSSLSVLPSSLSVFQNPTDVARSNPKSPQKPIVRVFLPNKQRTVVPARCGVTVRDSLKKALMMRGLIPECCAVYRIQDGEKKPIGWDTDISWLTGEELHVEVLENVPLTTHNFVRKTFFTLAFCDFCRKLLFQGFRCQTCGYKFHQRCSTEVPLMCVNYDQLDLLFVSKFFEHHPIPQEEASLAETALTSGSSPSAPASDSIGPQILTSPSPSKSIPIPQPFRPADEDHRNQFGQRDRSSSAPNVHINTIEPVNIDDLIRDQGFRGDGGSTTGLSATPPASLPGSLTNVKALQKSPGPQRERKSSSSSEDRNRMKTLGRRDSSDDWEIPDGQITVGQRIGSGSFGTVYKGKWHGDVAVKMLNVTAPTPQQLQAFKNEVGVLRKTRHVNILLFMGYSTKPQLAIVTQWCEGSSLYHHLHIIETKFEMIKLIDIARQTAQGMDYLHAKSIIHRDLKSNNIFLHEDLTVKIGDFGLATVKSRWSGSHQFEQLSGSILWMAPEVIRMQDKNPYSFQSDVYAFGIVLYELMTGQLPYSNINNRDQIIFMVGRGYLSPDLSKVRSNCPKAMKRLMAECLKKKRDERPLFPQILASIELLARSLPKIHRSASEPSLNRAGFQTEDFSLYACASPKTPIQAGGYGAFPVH
The assay can be described thus: B-Raf Kinase to MEK1 ELISA.
Details: not given
The assay is classed as biochemical. How it is done:
B-Raf Kinase to MEK1 ELISA
B-Raf1 Kinase Assay Procedure: B-Raf-1 is used to phosphorylate GST-MEK1.
B-Raf Assay Stock Solutions:
1. Assay Dilution Buffer (ADB): 20 mM MOPS, pH 7.2, 25 mM β-glycerol phosphate, 5 mM EGTA, 1 mM sodium orthovanadate, 1 mM dithiothreitol, 0.01% Triton X-100.
2. Magnesium/ATP Cocktail: ADB solution (minus Triton X-100) plus 200 μM cold ATP and 40 mM magnesium chloride.
4. Active Kinase: Active B-Raf: used at 0.2 nM per assay point.
8. Anti pMEK Ab (Upstate)
9. Anti-rabbit Ab/Europium conjugate (Wallac)
1. Add 25 μl of ADB containing B-Raf and Mek per assay (i.e. per well of a 96 well plate)
2. Add 25 μl of 0.2 mM ATP and 40 mM magnesium chloride in Magnesium/ATP Cocktail.
3. Incubate for 45 minutes at RT with occasional shaking.
4. Transfer this mixture to an anti-GST Ab coated 96 well plate (Nunc Immunosorb plates coated o/n with a-GST. Plate freshly washed 3× with TBS-T before use.
5. Incubate o/n at 30° C. in cold room.
6. Wash 3× with TBST, add Anti-Phospho MEK1 (1:1000, dilution depends upon lot)
7. Incubate for 60 minutes at RT in a shaking incubator
8. Wash 3× with TBST, add Anti-rabbit Ab/Europium conjugate (Wallac) (1:500, dilution depends upon lot)
9. Incubate for 60 minutes at RT on a platform shaker.
10. Wash plate 3× with TBS-T
11. Add 100 μl of Wallac Delfia Enhancement Solution and shake for 10 minutes.
12. Read plates in Wallac Victor model Plate Reader.
13. Collect data analyze in Excel for single point and IC50 determinations.
The % inhibition was determined for each compound concentration.
(ELISA stands for enzyme-linked immunosorbent assay.)
For the compound `O=C(Nc1cccc(-c2ncnc3cc(-c4ccncc4)sc23)c1)c1cccc(C(F)(F)F)c1` [Compound 6, N-[3-(6-pyridin-4-ylthieno[3,2-d]pyrimidin-4-yl)phenyl]-3-(trifluoromethyl)benzamide], the IC50 was found to be 540 nM.

`COc1ccc(C(=O)Nc2cccc(-c3c(C#N)cnc4cc(-c5ccncc5)sc34)c2)cc1C(F)(F)F` [Compound 7, N-[3-(6-cyano-2-pyridin-4-ylthieno[3,2-b]pyridin-7-yl)phenyl]-4-methoxy-3-(trifluoromethyl)benzamide]: the IC50 is 9600 nM.

Turning to `COc1ccc(C(=O)Nc2cccc(-c3ncnc4sc(-c5ccncc5)cc34)c2)cc1C(F)(F)F` [Compound 35, 4-methoxy-N-[3-(6-pyridin-4-ylthieno[2,3-d]pyrimidin-4-yl)phenyl]-3-(trifluoromethyl)benzamide], the IC50 was determined as 3460 nM.

On to `O=C(Nc1cccc(-c2ncnc3sc(-c4ccncc4)cc23)c1)Nc1ccc(F)c(C(F)(F)F)c1` [Compound 36, N-[4-fluoro-3-(trifluoromethyl)phenyl]-N′-[3-(6-pyridin-4-ylthieno[2,3-d]pyrimidin-4-yl)phenyl]urea], for which the IC50 was 2340 nM.

Regarding `Cc1ccc(C(=O)Nc2cccc(-c3ncnc4sc(-c5ccncc5)cc34)c2)cc1C(F)(F)F` [Compound 37, 4-methyl-N-[3-(6-pyridin-4-ylthieno[2,3-d]pyrimidin-4-yl)phenyl]-3-(trifluoromethyl)benzamide], the IC50 amounted to 2610 nM.

Consider `O=C(Nc1cccc(-c2ncnc3sc(-c4ccncc4)cc23)c1)c1ccc(F)c(C(F)(F)F)c1` [Compound 38, 4-fluoro-N-[3-(6-pyridin-4-ylthieno[2,3-d]pyrimidin-4-yl)phenyl]-3-(trifluoromethyl)benzamide], for which the half-inhibitory concentration (IC50) was determined as 300 nM.

`O=C(Nc1cccc(-c2ncnc3sc(-c4ccncc4)cc23)c1)Nc1ccc(Cl)c(C(F)(F)F)c1` [Compound 39, N-[4-chloro-3-(trifluoromethyl)phenyl]-N′-[3-(6-pyridin-4-ylthieno[2,3-d]pyrimidin-4-yl)phenyl]urea]: the IC50 amounted to 1400 nM.

Consider `O=C(Nc1cccc(-c2ncnc3sc(-c4ccncc4)cc23)c1)c1ccc(Cl)c(C(F)(F)F)c1` [Compound 40, 4-chloro-N-[3-(6-pyridin-4-ylthieno[2,3-d]pyrimidin-4-yl)phenyl]-3-(trifluoromethyl)benzamide], for which the IC50 is 3530 nM.

On to `O=C(Nc1cccc(-c2ncnc3sc(-c4ccncc4)cc23)c1)Nc1cccc(C(F)(F)F)c1` [Compound 41, N-[3-(6-pyridin-4-ylthieno[2,3-d]pyrimidin-4-yl)phenyl]-N′-[3-(trifluoromethyl)phenyl]urea], for which the 50% inhibitory concentration (IC50) stood at 1790 nM.

Turning to `O=C(Nc1cccc(-c2ncnc3sc(-c4ccncc4)cc23)c1)c1cccc(C(F)(F)F)c1` [Compound 42, N-[3-(6-pyridin-4-ylthieno[2,3-d]pyrimidin-4-yl)phenyl]-3-(trifluoromethyl)benzamide], the IC50 is 80 nM.

As for `Cc1ccc(NC(=O)Nc2cccc(-c3ncnc4sc(-c5ccncc5)cc34)c2)cc1C` [Compound 44, N-(3,4-dimethylphenyl)-N′-[3-(6-pyridin-4-ylthieno[2,3-d]pyrimidin-4-yl)phenyl]urea], the IC50 came out at 1530 nM.

For the compound `O=C(Nc1cccc(Cl)c1)Nc1cccc(-c2ncnc3sc(-c4ccncc4)cc23)c1` [Compound 45, N-(3-chlorophenyl)-N′-[3-(6-pyridin-4-ylthieno[2,3-d]pyrimidin-4-yl)phenyl]urea], the IC50 came to 8750 nM.

Consider `O=C(Nc1ccc(Cl)cc1)Nc1cccc(-c2ncnc3sc(-c4ccncc4)cc23)c1` [Compound 46, N-(4-chlorophenyl)-N′-[3-(6-pyridin-4-ylthieno[2,3-d]pyrimidin-4-yl)phenyl]urea], for which the IC50 was 1230 nM.

On to `O=C(Nc1cccc(-c2ncnc3sc(-c4ccnc(NCCN5CCOCC5)c4)cc23)c1)c1cccc(C(F)(F)F)c1` [Compound 86, N-[3-(6-{2-[(2-morpholin-4-ylethyl)amino]pyridin-4-yl}thieno[2,3-d]pyrimidin-4-yl)phenyl]-3-(trifluoromethyl)benzamide], for which the IC50 is 144 nM.

In the case of `N#Cc1ccccc1Cn1ccc2c(-c3cccc(NC(=O)c4cccc(C(F)(F)F)c4)c3)ncnc21` [Compound 94, N-{3-[7-(2-cyanobenzyl)-7H-pyrrolo[2,3-d]pyrimidin-4-yl]phenyl}-3-(trifluoromethyl)benzamide], the half-maximal inhibitory concentration (IC50) was found to be 2470 nM.

`O=C(Nc1cccc(-c2ncnc3c2ccn3Cc2ccncc2)c1)c1cccc(C(F)(F)F)c1` [Compound 98, N-{3-[7-(pyridin-4-ylmethyl)-7H-pyrrolo[2,3-d]pyrimidin-4-yl]phenyl}-3-(trifluoromethyl)benzamide]: the IC50 was determined as 1020 nM.

Still in this assay, the particulars now being: phosphorylation of GST-MEK1 by B-Raf (0.2 nM), phospho-MEK1 antibody/Europium readout; compound concentrations from 1 μM to 3 nM or 0.1 μM to 300 pm in half log dilutions; read-out: IC50.
Consider `N#Cc1cnc2cc(-c3ccncc3)sc2c1-c1cccc(NC(=O)c2cccc(C(F)(F)F)c2)c1` [Compound 5, N-[3-(6-cyano-2-pyridin-4-ylthieno[3,2-b]pyridin-7-yl)phenyl]-3-(trifluoromethyl)benzamide], for which the half-inhibitory concentration (IC50) was 5940 nM.

Turning to `O=C(Nc1cccc(-c2ncnc3sc(C4=CCNCC4)cc23)c1)c1cccc(C(F)(F)F)c1` [Compound 67, N-{3-[6-(1,2,3,6-tetrahydropyridin-4-yl)thieno[2,3-d]pyrimidin-4-yl]phenyl}-3-(trifluoromethyl)benzamide], the IC50 was found to be 2500 nM.

`CC(=O)Nc1ccc(-c2cc3c(-c4cccc(NC(=O)c5cccc(C(F)(F)F)c5)c4)ncnc3s2)cc1` [Compound 68, N-(3-{6-[4-(acetylamino)phenyl]thieno[2,3-d]pyrimidin-4-yl}phenyl)-3-(trifluoromethyl)benzamide]: the IC50 was 872 nM.

As for `CC(=O)Nc1cccc(-c2cc3c(-c4cccc(NC(=O)c5cccc(C(F)(F)F)c5)c4)ncnc3s2)c1` [Compound 72, N-(3-{6-[3-(acetylamino)phenyl]thieno[2,3-d]pyrimidin-4-yl}phenyl)-3-(trifluoromethyl)benzamide], the IC50 was found to be 2070 nM.

In the case of `O=C(Nc1cccc(-c2ncnc3sc(-c4cccnc4)cc23)c1)c1cccc(C(F)(F)F)c1` [Compound 75, N-[3-(6-pyridin-3-ylthieno[2,3-d]pyrimidin-4-yl)phenyl]-3-(trifluoromethyl)benzamide], the IC50 was found to be 1110 nM.

Regarding `N#Cc1ccc(-c2cc3c(-c4cccc(NC(=O)c5cccc(C(F)(F)F)c5)c4)ncnc3s2)cc1` [Compound 77, N-{3-[6-(4-cyanophenyl)thieno[2,3-d]pyrimidin-4-yl]phenyl}-3-(trifluoromethyl)benzamide], the IC50 came to 1230 nM.

In the case of `O=C(Nc1cccc(-c2ncnc3sc(-c4ccc(Cl)cc4)cc23)c1)c1cccc(C(F)(F)F)c1` [Compound 79, N-{3-[6-(4-chlorophenyl)thieno[2,3-d]pyrimidin-4-yl]phenyl}-3-(trifluoromethyl)benzamide], the IC50 turned out to be 4670 nM.

As to `CC(=O)c1ccc(-c2cc3c(-c4cccc(NC(=O)c5cccc(C(F)(F)F)c5)c4)ncnc3s2)cc1` [Compound 80, N-{3-[6-(4-acetylphenyl)thieno[2,3-d]pyrimidin-4-yl]phenyl}-3-(trifluoromethyl)benzamide], the IC50 turned out to be 2730 nM.

For the compound `CC(=O)c1cccc(-c2cc3c(-c4cccc(NC(=O)c5cccc(C(F)(F)F)c5)c4)ncnc3s2)c1` [Compound 81, N-{3-[6-(3-acetylphenyl)thieno[2,3-d]pyrimidin-4-yl]phenyl}-3-(trifluoromethyl)benzamide], the IC50 was found to be 3200 nM.

Consider `CNC(=O)c1cc(-c2cc3c(-c4cccc(NC(=O)c5cccc(C(F)(F)F)c5)c4)ncnc3s2)ccn1` [Compound 85, N-methyl-4-[4-(3-{[3-(trifluoromethyl)benzoyl]amino}phenyl)thieno[2,3-d]pyrimidin-6-yl]pyridine-2-carboxamide], for which the IC50 came to 730 nM.

In the case of `O=C(Nc1cccc(-c2ncnc3sc(-c4ccnc(NCCCn5ccnc5)c4)cc23)c1)c1cccc(C(F)(F)F)c1` [Compound 87, N-{3-[6-(2-{[3-(1H-imidazol-1-yl)propyl]amino}pyridin-4-yl)thieno[2,3-d]pyrimidin-4-yl]phenyl}-3-(trifluoromethyl)benzamide], the 50% inhibitory concentration (IC50) amounted to 158 nM.

Consider `N#Cc1cc2c(-c3cccc(NC(=O)c4cccc(C(F)(F)F)c4)c3)ncnc2s1` [Compound 88, N-[3-(6-cyanothieno[2,3-d]pyrimidin-4-yl)phenyl]-3-(trifluoromethyl)benzamide], for which the IC50 came out at 5980 nM.

For the compound `NC(=O)c1cc2c(-c3cccc(NC(=O)c4cccc(C(F)(F)F)c4)c3)ncnc2s1` [Compound 89, 4-(3-{[3-(trifluoromethyl)benzoyl]amino}phenyl)thieno[2,3-d]pyrimidine-6-carboxamide], the IC50 was 2720 nM.

Turning to `O=C(Nc1cccc(-c2ncnc3[nH]c(-c4ccncc4)cc23)c1)c1cccc(C(F)(F)F)c1` [Compound 101, N-[3-(6-pyridin-4-yl-7H-pyrrolo[2,3-d]pyrimidin-4-yl)phenyl]-3-(trifluoromethyl)benzamide], the IC50 came out at 34.5 nM.
